Experimental data: ChEMBL document CHEMBL4507258 (2021)

How the values were obtained:
[1] = system: Tyrosine-protein kinase ABL1 (Homo sapiens), P00519 [F317L]; conditions: Compound concentration 1000.0 nM
[2] = biological target: Activin receptor type-1-like (Homo sapiens) (UniProt P37023); conditions: Compound concentration 1000.0 nM
[3] = biological target: Aurora kinase C (Homo sapiens) (UniProt Q9UQB9); conditions: Compound concentration 1000.0 nM
[4] = biological target: Macrophage colony-stimulating factor 1 receptor (Homo sapiens) (UniProt P07333); conditions: Compound concentration 1000.0 nM
[5] = biological target: Tyrosine-protein kinase CSK (Homo sapiens) (UniProt P41240); conditions: Compound concentration 1000.0 nM
[6] = biological target: Casein kinase I isoform delta (Homo sapiens) (UniProt P48730); conditions: Compound concentration 1000.0 nM
Chain of Casein kinase I isoform delta (Homo sapiens) (P48730 whole entry, looked up, canonical isoform): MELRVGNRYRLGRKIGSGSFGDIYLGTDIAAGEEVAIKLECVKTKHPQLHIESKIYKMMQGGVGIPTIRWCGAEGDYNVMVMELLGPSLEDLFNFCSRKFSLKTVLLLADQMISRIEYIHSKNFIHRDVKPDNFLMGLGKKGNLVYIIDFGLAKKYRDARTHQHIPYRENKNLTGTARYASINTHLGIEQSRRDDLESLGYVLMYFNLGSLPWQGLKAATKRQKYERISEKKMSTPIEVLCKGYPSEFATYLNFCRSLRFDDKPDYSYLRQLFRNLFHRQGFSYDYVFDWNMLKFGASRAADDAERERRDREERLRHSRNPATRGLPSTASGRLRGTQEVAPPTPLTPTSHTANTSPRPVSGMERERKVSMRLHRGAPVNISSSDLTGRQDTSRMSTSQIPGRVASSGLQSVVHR

[7] = biological target: Casein kinase I isoform gamma-2 (Homo sapiens) (UniProt P78368); conditions: Compound concentration 1000.0 nM
[8] = biological target: Serine/threonine-protein kinase 17A (Homo sapiens) (UniProt Q9UEE5); conditions: Compound concentration 1000.0 nM
[9] = biological target: Epidermal growth factor receptor (Homo sapiens) (UniProt P00533); conditions: Compound concentration 1000.0 nM
[10] = system: Epidermal growth factor receptor (Homo sapiens), P00533 [UNDEFINED MUTATION]; conditions: Compound concentration 1000.0 nM
[11] = biological target: Ephrin type-A receptor 8 (Homo sapiens) (UniProt P29322); conditions: Compound concentration 1000.0 nM
[12] = biological target: Ephrin type-B receptor 4 (Homo sapiens) (UniProt P54760); conditions: Compound concentration 1000.0 nM
[13] = biological target: Receptor-type tyrosine-protein kinase FLT3 (Homo sapiens) (UniProt P36888); conditions: Compound concentration 1000.0 nM
[14] = system: Receptor-type tyrosine-protein kinase FLT3 (Homo sapiens), P36888 [D835V]; conditions: Compound concentration 1000.0 nM
[15] = biological target: Rhodopsin kinase GRK1 (Homo sapiens) (UniProt Q15835); conditions: Compound concentration 1000.0 nM
[16] = biological target: Homeodomain-interacting protein kinase 2 (Homo sapiens) (UniProt Q9H2X6); conditions: Compound concentration 1000.0 nM
[17] = biological target: Serine/threonine-protein kinase ICK (Homo sapiens) (UniProt Q9UPZ9); conditions: Compound concentration 1000.0 nM
[18] = system: Mast/stem cell growth factor receptor Kit (Homo sapiens), P10721 [A829P]; conditions: Compound concentration 1000.0 nM
[19] = system: Mast/stem cell growth factor receptor Kit (Homo sapiens), P10721 [V559D]; conditions: Compound concentration 1000.0 nM
[20] = system: Leucine-rich repeat serine/threonine-protein kinase 2 (Homo sapiens), Q5S007 [G2019S]; conditions: Compound concentration 1000.0 nM
[21] = biological target: Mitogen-activated protein kinase kinase kinase kinase 3 (Homo sapiens) (UniProt Q8IVH8); conditions: Compound concentration 1000.0 nM
Chain of Mitogen-activated protein kinase kinase kinase kinase 3 (Homo sapiens) (Q8IVH8 whole entry): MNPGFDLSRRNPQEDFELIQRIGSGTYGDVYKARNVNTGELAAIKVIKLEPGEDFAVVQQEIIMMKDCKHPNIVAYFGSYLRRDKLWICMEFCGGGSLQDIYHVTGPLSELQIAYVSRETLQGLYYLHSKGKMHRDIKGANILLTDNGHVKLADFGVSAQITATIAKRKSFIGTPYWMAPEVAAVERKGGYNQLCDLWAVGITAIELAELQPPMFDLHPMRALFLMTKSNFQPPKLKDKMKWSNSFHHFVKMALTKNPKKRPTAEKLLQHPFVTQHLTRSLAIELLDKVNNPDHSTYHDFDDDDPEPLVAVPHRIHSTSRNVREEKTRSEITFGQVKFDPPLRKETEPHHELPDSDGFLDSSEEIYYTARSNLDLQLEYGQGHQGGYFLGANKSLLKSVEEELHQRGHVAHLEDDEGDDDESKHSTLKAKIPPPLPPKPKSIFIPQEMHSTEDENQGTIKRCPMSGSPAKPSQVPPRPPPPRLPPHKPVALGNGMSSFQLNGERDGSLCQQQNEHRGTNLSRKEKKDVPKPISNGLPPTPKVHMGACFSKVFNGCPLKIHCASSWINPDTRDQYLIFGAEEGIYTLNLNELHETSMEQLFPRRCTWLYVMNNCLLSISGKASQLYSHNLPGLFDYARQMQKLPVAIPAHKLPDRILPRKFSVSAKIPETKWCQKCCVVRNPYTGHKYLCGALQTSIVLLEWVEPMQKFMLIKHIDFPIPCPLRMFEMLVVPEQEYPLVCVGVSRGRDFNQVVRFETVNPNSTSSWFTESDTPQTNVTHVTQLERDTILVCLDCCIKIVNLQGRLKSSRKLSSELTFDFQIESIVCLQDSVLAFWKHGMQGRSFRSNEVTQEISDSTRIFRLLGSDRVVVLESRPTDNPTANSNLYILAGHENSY

[22] = biological target: MAP kinase-activated protein kinase 2 (Homo sapiens) (UniProt P49137); conditions: Compound concentration 1000.0 nM
[23] = biological target: Serine/threonine-protein kinase MARK2 (Homo sapiens) (UniProt Q7KZI7); conditions: Compound concentration 1000.0 nM
[24] = biological target: Dual specificity mitogen-activated protein kinase kinase 5 (Homo sapiens) (UniProt Q13163); conditions: Compound concentration 1000.0 nM
[25] = biological target: Maternal embryonic leucine zipper kinase (Homo sapiens) (UniProt Q14680); conditions: Compound concentration 1000.0 nM
[26] = biological target: Tyrosine-protein kinase Mer (Homo sapiens) (UniProt Q12866); conditions: Compound concentration 1000.0 nM
[27] = biological target: Serine/threonine-protein kinase 4 (Homo sapiens) (UniProt Q13043); conditions: Compound concentration 1000.0 nM
[28] = biological target: Mitogen-activated protein kinase 11 (Homo sapiens) (UniProt Q15759); conditions: Compound concentration 1000.0 nM
Chain of Mitogen-activated protein kinase 11 (Homo sapiens) (Q15759 whole entry, canonical isoform): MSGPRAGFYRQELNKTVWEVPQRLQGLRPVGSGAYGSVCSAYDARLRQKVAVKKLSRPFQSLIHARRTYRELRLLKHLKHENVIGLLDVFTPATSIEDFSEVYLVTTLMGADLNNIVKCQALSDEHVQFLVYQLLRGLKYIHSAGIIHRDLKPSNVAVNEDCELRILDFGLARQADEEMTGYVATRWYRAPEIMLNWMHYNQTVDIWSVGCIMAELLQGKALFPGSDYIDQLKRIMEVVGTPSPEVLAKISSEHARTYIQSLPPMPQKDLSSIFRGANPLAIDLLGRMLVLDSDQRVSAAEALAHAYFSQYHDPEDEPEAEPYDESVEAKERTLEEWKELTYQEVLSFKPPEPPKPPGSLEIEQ

[29] = system: Phosphatidylinositol 4,5-bisphosphate 3-kinase catalytic subunit alpha isoform (Homo sapiens), P42336 [E545A]; conditions: Compound concentration 1000.0 nM
[30] = biological target: Phosphatidylinositol 4-kinase beta (Homo sapiens) (UniProt Q9UBF8); conditions: Compound concentration 1000.0 nM
Chain of Phosphatidylinositol 4-kinase beta (Homo sapiens) (Q9UBF8 2-816 limits assumed): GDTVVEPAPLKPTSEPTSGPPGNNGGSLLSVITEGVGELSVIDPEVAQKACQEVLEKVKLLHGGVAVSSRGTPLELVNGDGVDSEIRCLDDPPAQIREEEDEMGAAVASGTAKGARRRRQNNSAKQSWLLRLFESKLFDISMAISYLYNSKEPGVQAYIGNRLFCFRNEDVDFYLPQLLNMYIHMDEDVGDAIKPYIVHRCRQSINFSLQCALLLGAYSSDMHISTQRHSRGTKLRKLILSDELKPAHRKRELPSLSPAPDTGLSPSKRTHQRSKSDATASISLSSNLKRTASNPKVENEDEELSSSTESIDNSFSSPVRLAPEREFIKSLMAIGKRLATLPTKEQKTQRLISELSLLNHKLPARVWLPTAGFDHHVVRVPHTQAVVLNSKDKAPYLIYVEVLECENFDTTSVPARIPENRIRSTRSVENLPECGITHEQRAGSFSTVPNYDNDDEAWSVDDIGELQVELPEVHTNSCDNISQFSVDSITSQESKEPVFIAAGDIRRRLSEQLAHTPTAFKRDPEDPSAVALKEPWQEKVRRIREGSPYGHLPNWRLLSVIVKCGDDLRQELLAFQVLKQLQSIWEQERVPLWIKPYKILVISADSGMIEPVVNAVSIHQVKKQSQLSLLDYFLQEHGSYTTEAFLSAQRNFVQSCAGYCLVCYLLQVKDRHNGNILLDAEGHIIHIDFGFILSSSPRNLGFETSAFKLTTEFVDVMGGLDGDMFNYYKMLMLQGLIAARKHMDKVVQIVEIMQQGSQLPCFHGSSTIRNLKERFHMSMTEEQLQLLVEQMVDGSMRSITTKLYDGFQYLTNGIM

[31] = biological target: cGMP-dependent protein kinase 2 (Homo sapiens) (UniProt Q13237); conditions: Compound concentration 1000.0 nM
[32] = biological target: Ribosomal protein S6 kinase alpha-5 (Homo sapiens) (UniProt O75582); conditions: Compound concentration 1000.0 nM
[33] = biological target: Ribosomal protein S6 kinase alpha-2 (Homo sapiens) (UniProt Q15349); conditions: Compound concentration 1000.0 nM
[34] = biological target: Serine/threonine-protein kinase TBK1 (Homo sapiens) (UniProt Q9UHD2); conditions: Compound concentration 1000.0 nM
Chain of Serine/threonine-protein kinase TBK1 (Homo sapiens) (Q9UHD2 whole entry): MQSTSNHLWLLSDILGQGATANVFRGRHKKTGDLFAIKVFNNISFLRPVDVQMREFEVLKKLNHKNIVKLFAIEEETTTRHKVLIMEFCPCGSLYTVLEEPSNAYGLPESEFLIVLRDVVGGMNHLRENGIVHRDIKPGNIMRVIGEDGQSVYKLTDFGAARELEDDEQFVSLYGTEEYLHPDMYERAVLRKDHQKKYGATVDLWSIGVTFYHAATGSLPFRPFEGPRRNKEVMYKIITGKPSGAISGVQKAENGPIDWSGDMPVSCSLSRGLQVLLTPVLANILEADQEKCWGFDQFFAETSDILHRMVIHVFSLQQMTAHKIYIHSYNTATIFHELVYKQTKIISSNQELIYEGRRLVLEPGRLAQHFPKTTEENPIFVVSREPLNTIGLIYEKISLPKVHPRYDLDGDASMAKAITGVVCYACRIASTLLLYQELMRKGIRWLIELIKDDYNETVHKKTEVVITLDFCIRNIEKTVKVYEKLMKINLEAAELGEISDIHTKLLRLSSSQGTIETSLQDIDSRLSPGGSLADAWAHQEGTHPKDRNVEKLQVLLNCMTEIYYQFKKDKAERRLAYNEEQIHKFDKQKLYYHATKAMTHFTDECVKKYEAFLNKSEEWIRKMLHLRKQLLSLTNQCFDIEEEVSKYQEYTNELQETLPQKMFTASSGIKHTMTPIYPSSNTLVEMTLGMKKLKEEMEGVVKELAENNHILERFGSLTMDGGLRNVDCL

[35] = biological target: Activated CDC42 kinase 1 (Homo sapiens) (UniProt Q07912); conditions: Compound concentration 1000.0 nM
[36] = biological target: High affinity nerve growth factor receptor (Homo sapiens) (UniProt P04629); conditions: Compound concentration 1000.0 nM
[37] = biological target: Transient receptor potential cation channel subfamily M member 6 (Homo sapiens) (UniProt Q9BX84); conditions: Compound concentration 1000.0 nM
[38] = biological target: Tyrosine-protein kinase TXK (Homo sapiens) (UniProt P42681); conditions: Compound concentration 1000.0 nM
[39] = biological target: Tyrosine-protein kinase Yes (Homo sapiens) (UniProt P07947); conditions: Compound concentration 1000.0 nM
Chain of Tyrosine-protein kinase Yes (Homo sapiens) (P07947 2-543 limits assumed): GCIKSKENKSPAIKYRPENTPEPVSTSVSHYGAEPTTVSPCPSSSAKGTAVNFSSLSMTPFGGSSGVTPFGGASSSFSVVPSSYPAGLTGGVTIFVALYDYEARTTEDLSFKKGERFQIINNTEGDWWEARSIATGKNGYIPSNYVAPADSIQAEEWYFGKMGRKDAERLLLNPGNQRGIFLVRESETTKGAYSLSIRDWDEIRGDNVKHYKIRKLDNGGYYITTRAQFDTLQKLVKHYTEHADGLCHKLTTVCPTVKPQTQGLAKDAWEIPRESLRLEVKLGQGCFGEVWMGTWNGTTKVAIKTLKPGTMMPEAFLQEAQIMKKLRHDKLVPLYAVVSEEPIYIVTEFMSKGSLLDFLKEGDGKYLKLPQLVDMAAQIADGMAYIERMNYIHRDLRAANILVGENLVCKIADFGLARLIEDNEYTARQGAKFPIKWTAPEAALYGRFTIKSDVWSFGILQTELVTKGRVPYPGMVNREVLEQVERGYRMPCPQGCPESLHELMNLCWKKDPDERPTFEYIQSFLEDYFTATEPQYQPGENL

[40] = biological target: T1, 5-hydroxytryptamine receptor 1A (Homo sapiens) (UniProt P08908); conditions: Compound concentration 10.0 uM
T1 sequence (whole entry): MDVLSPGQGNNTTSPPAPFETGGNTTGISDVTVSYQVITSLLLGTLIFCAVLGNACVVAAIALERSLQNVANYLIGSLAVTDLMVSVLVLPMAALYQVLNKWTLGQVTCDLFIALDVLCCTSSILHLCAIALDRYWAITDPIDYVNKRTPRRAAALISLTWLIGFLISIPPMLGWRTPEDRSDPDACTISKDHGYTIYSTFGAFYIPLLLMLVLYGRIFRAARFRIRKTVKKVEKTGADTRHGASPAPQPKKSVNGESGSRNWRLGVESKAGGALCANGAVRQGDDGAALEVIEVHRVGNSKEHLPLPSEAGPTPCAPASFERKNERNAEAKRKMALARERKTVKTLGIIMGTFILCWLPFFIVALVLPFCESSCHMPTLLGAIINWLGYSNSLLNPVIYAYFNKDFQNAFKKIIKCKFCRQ

Chain of Tyrosine-protein kinase ABL1 (Homo sapiens), P00519 [F317L] (P00519 whole entry F317L): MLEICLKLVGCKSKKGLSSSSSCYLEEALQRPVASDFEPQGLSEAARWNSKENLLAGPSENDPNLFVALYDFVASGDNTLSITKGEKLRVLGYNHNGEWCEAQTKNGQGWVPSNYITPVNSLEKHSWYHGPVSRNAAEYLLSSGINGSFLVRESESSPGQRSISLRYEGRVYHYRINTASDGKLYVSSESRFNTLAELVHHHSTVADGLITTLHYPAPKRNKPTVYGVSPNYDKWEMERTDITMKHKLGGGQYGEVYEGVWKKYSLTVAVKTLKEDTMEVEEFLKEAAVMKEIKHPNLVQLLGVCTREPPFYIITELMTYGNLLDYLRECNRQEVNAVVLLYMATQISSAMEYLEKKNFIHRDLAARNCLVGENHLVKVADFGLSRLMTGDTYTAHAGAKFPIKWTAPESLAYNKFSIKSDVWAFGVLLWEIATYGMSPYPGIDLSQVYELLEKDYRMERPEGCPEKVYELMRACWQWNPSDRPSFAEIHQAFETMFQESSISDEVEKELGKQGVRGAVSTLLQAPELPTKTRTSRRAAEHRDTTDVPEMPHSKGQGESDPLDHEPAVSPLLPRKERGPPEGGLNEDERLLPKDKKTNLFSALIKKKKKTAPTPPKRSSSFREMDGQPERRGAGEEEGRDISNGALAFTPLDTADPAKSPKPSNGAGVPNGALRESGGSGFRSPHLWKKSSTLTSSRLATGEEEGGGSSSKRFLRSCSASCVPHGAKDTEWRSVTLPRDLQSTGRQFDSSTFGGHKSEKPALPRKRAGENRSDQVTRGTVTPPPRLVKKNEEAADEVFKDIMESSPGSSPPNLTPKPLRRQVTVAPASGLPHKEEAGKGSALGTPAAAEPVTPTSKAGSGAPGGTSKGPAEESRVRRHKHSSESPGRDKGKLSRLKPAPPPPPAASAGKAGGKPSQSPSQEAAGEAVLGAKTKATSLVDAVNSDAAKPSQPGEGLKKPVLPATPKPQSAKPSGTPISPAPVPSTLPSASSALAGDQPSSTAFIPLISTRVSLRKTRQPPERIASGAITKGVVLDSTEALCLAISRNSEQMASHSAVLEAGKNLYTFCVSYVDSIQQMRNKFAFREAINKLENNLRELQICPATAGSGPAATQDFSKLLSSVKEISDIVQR

SMILES | residual activity [1] [%] | residual activity [2] [%] | residual activity [3] [%] | residual activity [4] [%] | residual activity [5] [%] | residual activity [6] [%] | residual activity [7] [%] | residual activity [8] [%] | residual activity [9] [%] | residual activity [10] [%] | residual activity [11] [%] | residual activity [12] [%] | residual activity [13] [%] | residual activity [14] [%] | residual activity [15] [%] | residual activity [16] [%] | residual activity [17] [%] | residual activity [18] [%] | residual activity [19] [%] | residual activity [20] [%] | also measured
CCCCN(CCCC)C(=O)CN1C[C@@H](c2cc(OC)c3c(c2)OCO3)[C@H](C(=O)O)[C@H]1CC(C)(C)CCC [A-545] | 93.5 | 99.4 | 100 | 100 | 100 | 98.9 | 96.3 | 100 | 100 | 75.9 | 99.9 | 98.5 | 91.9 | 78.8 | 100 | 97.1 | 83.5 | 76.5 | 100 | 100 | residual activity [21]: 94.1%; residual activity [22]: 84.2%; residual activity [23]: 100%; residual activity [24]: 100%; residual activity [25]: 100%; residual activity [26]: 100%; residual activity [27]: 94.4%; residual activity [28]: 99.2%; residual activity [29]: 77.9%; residual activity [30]: 97.6%; residual activity [31]: 100%; residual activity [32]: 98.5%; residual activity [33]: 84.7%; residual activity [34]: 100%; residual activity [35]: 91.6%; residual activity [36]: 86.7%; residual activity [37]: 90.4%; residual activity [38]: 100%; residual activity [39]: 95.3%; inhibition [40]: 76.3%
CCCCN(CCCC)C(=O)CN1C[C@H](c2cc(OC)c3c(c2)OCO3)[C@@H](C(=O)O)[C@@H]1CC(C)(C)CCC [ABT-546] | 96.7 | 100 | 100 | 43 | 100 | 100 | 100 | 100 | 95.1 | 79.8 | 100 | 100 | 100 | 57.4 | 71.9 | 82.3 | 80.2 | 80.9 | 96.1 | 100 | residual activity [21]: 100%; residual activity [22]: 100%; residual activity [23]: 100%; residual activity [24]: 100%; residual activity [25]: 100%; residual activity [26]: 100%; residual activity [27]: 100%; residual activity [28]: 94.2%; residual activity [29]: 89.8%; residual activity [30]: 80.5%; residual activity [31]: 100%; residual activity [32]: 100%; residual activity [33]: 100%; residual activity [34]: 100%; residual activity [35]: 100%; residual activity [36]: 61.2%; residual activity [37]: 91.6%; residual activity [38]: 94.3%; residual activity [39]: 100%; inhibition [40]: 20.6%
